Source: patent US9352074B2, “Antimicrobial examination gloves” (priority 2013, dated 2016)

Assays:
Staphylococcus aureus = test: Zones of inhibition analysis of nitrile rubber film swatches on seeded agar; assay type: cell-based; settings: for antibacterial properties of polymer film (in words): incorporated into the nitrile rubber latex dip bath; for sides of the film exhibiting antibacterial activity (in words): PHMB in coagulation layer, triclosan in nitrile rubber
Protocol: Tests were carried out in order to assess which combination of biocidal agents were compatible with the glove manufacturing process and gave the best antimicrobial performance. Small rectangles of nitrile rubber latex were prepared by dipping clean microscope slides into warm coagulant solution, withdrawing them and drying them in an oven at 110° C. The slides were allowed to cool before dipping into the nitrile rubber latex dispersion. They were withdrawn, allowed to drain, and placed in an oven at 110° C. After cooling the layer of cured nitrile rubber was carefully removed from the microscope slide and sent for testing to determine their antimicrobial properties. Active ingredients were incorporated into the coagulant and nitrile polymer latex dispersion as appropriate.
The qualitative measure of their antibacterial performance was carried out by zones of inhibition analysis. The procedure used was for each sample to be assayed against Staphylococcus aureus, a bacterium commonly found on the skin of humans, by comparing their zones of inhibition on an agar preparation.
Seeded agar plates were prepared by adding 0.1 ml of an overnight broth culture into a clean, sterile petri dish, adding approximately 20 ml of an agar preparation that had been sterilised and cooled to 45° C. before use. The selective agar used was Tryptone Soy Agar. The challenge organism was mixed into the agar by gentle swirling to provide a homogeneous suspension. The plates were allowed to set for approximately one hour in a cool dry place.
Swatches of the polymer glove material were cut to approximately 2 cm square and placed on the seeded agar. The petri dishes were then placed in an incubator overnight at 37° C. Migration of the chemicals toxic to the challenge organisms creates a zone around the edge of the swatch where growth of the challenge organism is inhibited. The relative distance of the zone inhibition from the edge of the swatch for each organism gives an indication of the antibacterial efficacy of the products.

[1] = cited from earlier work
[2] = Experiment 2, 0.1% added to nitrile rubber
[3] = Experiment 2, 0.1% in nitrile rubber, compared with control sample 12B/088
[4] = Experiment 3, 0.1% added to coagulant solution
[5] = Experiment 3, 1.0% added to coagulant solution
[6] = Experiment 3, added to the calcium containing coagulant solution, agent on one side of the film
[7] = Experiment 4, incorporated into the coagulation layer / coagulant solution

Row | Compound | antibacterial properties of polymer film (in words) (Staphylococcus aureus; Experiment 1) | ZONE OF INHIBITION (Staphylococcus aureus; [2]) | antibacterial effectiveness (in words) (Staphylococcus aureus; [3]) | ZONE OF INHIBITION (Staphylococcus aureus; [4]) | ZONE OF INHIBITION (Staphylococcus aureus; [5]) | antibacterial performance (in words) (Staphylococcus aureus; [6]) | antibacterial performance (in words) (Staphylococcus aureus; [7]) | sides of the film exhibiting antibacterial activity (in words) (Staphylococcus aureus; Experiment 4) | also measured
1 | Cn1sc(Cl)cc1=O [Methylchloroisothiazolinone] | – | – | – | – | – | – | – | – | antibacterial effectiveness (in words) (Staphylococcus aureus; Experiment 3, 0.5%): effective antibacterial agent; ZONE OF INHIBITION (Staphylococcus aureus; Experiment 3, 0.5% added to nitrile rubber): 15 mm
2 | O=c1[nH]sc2ccccc12 [Proxel (BIT), 1,2-Benzisothiazol-3((2H)-one] | exhibited antibacterial properties | 15 mm | significantly more effective | – | – | – | – | – | ZONE OF INHIBITION (Staphylococcus aureus; Experiment 1, 0.15% added to nitrile rubber): 9 mm
3 | [H]/N=C(\N/C(=N/[H])NCCCCCCNC(=N)NC(=N)Nc1ccc(Cl)cc1)Nc1ccc(Cl)cc1 [Chlorhexidine] | – | – | – | 11 mm | 18 mm | effective antibacterial performance | – | – | –
4 | Benzalkonium chloride [BTC 50E] | – | – | – | – | 30 mm | effective antibacterial performance | good results | – | ZONE OF INHIBITION (Staphylococcus aureus; Experiment 3, 0.22% added to coagulant solution): 14 mm; ZONE OF INHIBITION (Staphylococcus aureus; Experiment 4, 0.25% added to coagulant solution): 8 mm
5 | Poly(hexamethylene biguanide) [PHMB] | – | – | – | – | – | – | good results | only one side of the polymer film exhibits antibacterial performance | ZONE OF INHIBITION (Staphylococcus aureus; Experiment 4, 0.3% added to coagulant solution, face down as normal): 16 mm; ZONE OF INHIBITION (Staphylococcus aureus; Experiment 4, 0.3% added to coagulant solution, film placed face up on the agar plate, biocide not on the side on the agar gel): 5 mm
6 | Oc1cc(Cl)ccc1Oc1ccc(Cl)cc1Cl [Triclosan] | exhibited antibacterial properties | 20 mm | significantly more effective | 10 mm | – | exhibited antibacterial performance but was not as effective as when it was incorporated into the nitrile rubber layer | – | both sides of the film exhibit antibacterial activity | solubility in water [1]: 0.0012 g per liter; ZONE OF INHIBITION (Staphylococcus aureus; Experiment 1, 0.05% added to nitrile rubber): 15 mm; ZONE OF INHIBITION (Staphylococcus aureus; Experiment 2, 0.25% added to nitrile rubber): 18 mm; ZONE OF INHIBITION (Staphylococcus aureus; Experiment 3, 0.05% added to nitrile rubber): 12 mm; antibacterial effectiveness (in words) (Staphylococcus aureus; Experiment 3, 0.05% in the nitrile rubber film (run 12C/064)): effective; ZONE OF INHIBITION (Staphylococcus aureus; Experiment 3, 0.1% added to nitrile rubber): 17 mm; ZONE OF INHIBITION (Staphylococcus aureus; Experiment 3, 0.5% added to coagulant solution): 12 mm; ZONE OF INHIBITION (Staphylococcus aureus; Experiment 4, 0.1% added to nitrile rubber): 16 mm; antibacterial performance (in words) (Staphylococcus aureus; Experiment 4, incorporated into the nitrile rubber): good antibacterial performance
